According to publication PMC7188779, “Hydroxypropyl-β-Cyclodextrin Complexes of Styryllactones Enhance the Anti-Tumor Effect in SW1116 Cell Line” (Frontiers in Pharmacology, 2020):
“Also recorded” adds a separate entry of the source. Like-named read-outs stand apart in the source and are kept apart here.

Experiments:
[1] = system: KB (oral epidermoid carcinoma cell line); parameters: method as in Trieu et al., 2014; conditions: ref Trieu et al., 2014; cited from earlier work
HepG2 (liver cancer) = system: HepG2 (liver cancer); parameters: method as in Trieu et al., 2014; conditions: ref Trieu et al., 2014; cited from earlier work
MCF7 (breast carcinoma) = system: MCF7 (breast carcinoma); parameters: method as in Trieu et al., 2014; conditions: ref Trieu et al., 2014; cited from earlier work
[2] = system: human hepatocellular carcinoma HepG2 cell line; assay: MTT antiproliferative assay, HepG2; type: cell-based; conditions: 24 h, 1.0-100.0 μM, means ± SEM (n=3)
Experimental: (§1) The human colon cancer SW1116 cell line, the human hepatocellular carcinoma SMMC-7721 cell line, the human gastric cancer SGC-7901 cell line, and the human hepatocellular carcinoma HepG2 cell line were kindly provided by Xiao-li Xu from the Cancer Center, Fudan University. The human embryonic kidney 293T (HEK293T) cell line was kindly donated by Professor You-hua Xie from Fudan University. These human cancer cell lines were cultured in DMEM medium or RPMI-1640 medium, whereas the HEK293T cell line was cultured in MEM medium. All of the cell lines were supplemented with 10% FBS, penicillin (100 U/ml), and streptomycin ([…]) under a humidified atmosphere of 5% CO2 at 37°C using a CO2 incubator (SANYO, Osaka, Japan). Cell count was assessed using the trypan blue dye exclusion method.
(§2) The antiproliferative effects of the treatments were evaluated using the MTT assay. Cells were seeded at a density of 5×10^3 cells/well in 96-well plates (Corning, NY, USA). After attachment, the culture media were replaced with various concentrations of chemicals for 24 h. Then, the media in 96-well plates were incubated with MTT reagent (5 mg/ml) for 4 h at 37°C. Subsequently, the culture medium was discarded and 100 μl of DMSO was added to each well, to solubilize the formazan crystal formed. The absorbance of formazan crystal solution was determined at 570 nm on a Multiskan FC from Thermo Fisher Scientific Inc. (Waltham, MA, USA).

[3] = system: human embryonic kidney 293T (HEK293T) cell line; assay: MTT cytotoxicity against normal cell line HEK293T; type: cell-based; conditions: 24 h; for IC50: Homo sapiens, HEK-293T, means ± SEM (n=3)
Experimental: as §1, §2

[4] = system: human hepatocellular carcinoma SMMC-7721 cell line; assay: MTT antiproliferative assay, SMMC-7721; type: cell-based; conditions: for IC50: Homo sapiens, SMMC-7721, means ± SEM (n=3)
Experimental: as §1, §2

[5] = system: human gastric cancer SGC-7901 cell line; assay: MTT antiproliferative assay, SGC-7901; type: cell-based; conditions: 24 h, 1.0-100.0 μM, means ± SEM (n=3)
Experimental: as §1, §2

[6] = system: human colon cancer SW1116 cell line; assay: MTT antiproliferative assay, SW1116; type: cell-based; conditions: for IC50: Homo sapiens, SW 1116, means ± SEM (n=3); for cell viability of SW1116 cells compared with normal group (0 μM): 30 μM, p < 0.01
Experimental: as §1, §2

SW1116 cells = assay: Annexin V-FITC/PI double staining by flow cytometry; type: cell-based, human; conditions: 36 h
Experimental: The growing cells were incubated in 24-well microplates (Corning, NY, USA) for 24 h. The cells were then treated with various concentrations of leiocarpin E-7′-monoacetate or taxol in humidified air with 5% CO2 at 37°C. After 36 h of incubation, the culture medium was discarded, and the cells were collected. For the apoptosis analysis, cells were suspended with 1×binding buffer (1×10^6 cells/ml) and then labeled with annexin V-FITC/PI, as per the manufacturer's instructions (Keygentec, Nanjing, Jiangsu, China). The analysis of the samples was performed by flow cytometry (Becton-Dickinson Bioscience, San Jose, CA, USA), and the acquired data was analyzed by the CellQuest software (Becton-Dickinson Bioscience, San Jose, CA, USA).

[7] = system: caspase-3, -8 and -9 in SW1116 cells; assay: Caspase activity assay in cell lysates; type: cell-based, human; conditions: 8 h
Experimental: To evaluate the activity of caspases, cell lysates were prepared after their respective designated treatments. The incubation of the growing cells was carried out in 24-well microplates (Corning, NY, USA) for 24 h. The cells were then treated with different concentrations of leiocarpin E-7′-monoacetate under humidified air with 5% CO2 at 37°C. After 8 h of incubation, the culture medium was discarded, the cells collected and washed twice with PBS. The mixture was then centrifuged at 2,000 rpm for 5 min. The PBS supernatant was discarded and the cells (concentration, 5×10^6 cells) were collected. To these cells, ice-cold lysis buffer (150~200 μl) was added. The mixture was placed on ice for 30 min, and then centrifuged (10,000 rpm, 1 min) at 4°C. The supernatant, containing lysed protein, was carefully aspirated and transferred to a new tube. The protein concentration was then measured in 2 μl of the supernatant using the Bradford method. The caspase assays were then performed in 96-well microtiter plates (Keygentec, Nanjing, Jiangsu, China) by incubating 10 μl of protein cell lysate per sample in 80 μl of reaction buffer (1% NP-40, 20 mM Tris-HCl (pH 7.5), 137 mM NaCl, and 10% glycerol) containing 10 μl of caspase substrate (2 mM). Lysates were incubated at 37°C for 4 h. Measuremet was done at 405 nm on a Multiskan FC from Thermo Fisher Scientific Inc. (Waltham, MA, USA). The detailed analysis procedure is described in the manufacturer's protocol (Keygentec, Nanjing, Jiangsu, China).

[8] = 1.0-100.0 μM, read-out: IC50 HEK293T
[9] = MTT, 24 h, 1.0-100.0 μM, read-out: IC50 SMMC-7721
[10] = MTT, 24 h, 1.0-100.0 μM, read-out: IC50 SW1116

Compound | IC50 [2] [µM] | IC50 [4, 9] [µM] | IC50 [5] [µM] | IC50 [6, 10] [µM] | IC50 [3, 8] [µM] | cell viability of SW1116 cells compared with normal group (0 μM) ([6]; 24 h) | other results
CC(=O)OC1C(c2ccccc2)OC2C=CC(=O)OC21 (centres unmarked) [7-acetylaltholactone] |  |  |  |  |  |  | IC50 [1]: 13.1 µM; IC50 (HepG2 (liver cancer)): 23.7 µM; IC50 (MCF7 (breast carcinoma)): 60.2 µM
hydroxypropyl-β-cyclodextrin [HP-β-CD] |  |  |  |  |  |  | inhibitory activity against HEK293T ([3]; 25.0-200.0 μM): did not show any inhibitory activity; inhibition of growth, SMMC-7721 ([4]; MTT, 24 h, 25.0-200.0 μM): did not show any inhibition; also recorded: no inhibitory effect; inhibition of growth, SW1116 ([6]; MTT, 24 h, 25.0-200.0 μM): did not show any inhibition; also recorded: no inhibitory effect
CC(=O)O[C@H]1C=CC(=O)O[C@H]1[C@H]1O[C@@H]1c1ccccc1 [Cheliensisin A, (2R,3S)-6-oxo-2-((2S,3R)-3-phenyloxiran-2-yl)-3,6-dihydro-2H-pyran-3-yl acetate] | > 100 | > 100 | > 100 | 93.18 ± 0.78 | > 100 |  | IC50 ([3]; pristine compound, 25.0-200.0 μM, read-out: IC50 HEK293T Compound): > 200 µM; IC50 ([4]; pristine compound, MTT, 24 h, 25.0-200.0 μM, read-out: IC50 SMMC-7721 Compound): 111 ± 2.41 µM; IC50 reduced by complexation with HP-β-CD, SMMC-7721 ([4]; complex vs pristine compound): 58%; IC50 ([6]; pristine compound, MTT, 24 h, 25.0-200.0 μM, read-out: IC50 SW1116 Compound): 93.18 ± 0.78 µM; IC50 reduced by complexation with HP-β-CD, SW1116 ([6]; complex vs pristine compound): 45%
O=C1C=CC[C@H]([C@H](O)[C@H](O)c2ccccc2)O1 [Goniodiol, (R)-6-((1R,2R)-1,2-dihydroxy-2-phenylethyl)-5,6-dihydro-2H-pyran-2-one] | > 100 | > 100 | > 100 | 80 ± 4.16 | > 100 |  | 
O=C1C=CC[C@H]([C@@H](O)[C@H]2O[C@H]([C@H]3CC=CC(=O)O3)[C@@H](c3ccccc3)c3ccccc32)O1 [Leiocarpin E, (R)-6-((R)-hydroxy((1S,3S,4S)-3-((R)-6-oxo-3,6-dihydro-2H-pyran-2-yl)-4-phenylisochroman-1-yl)methyl)-5,6-dihydro-2H-pyran-2-one] | > 100 | > 100 | > 100 | 15.1 ± 1.87 | > 100 | significantly less | 

The next lines start with results.

IC50 [2] [µM] | IC50 [4, 9] [µM] | IC50 [5] [µM] | IC50 [6, 10] [µM] | Compound | IC50 [3, 8] [µM] | cell viability of SW1116 cells compared with normal group (0 μM) ([6]; 24 h) | other results
> 100 | > 100 | > 100 | 41.9 ± 0.98 | COc1cc([C@@H]2c3cc4c(cc3[C@@H](O[C@@H]3O[C@@H]5CO[C@@H](C)O[C@H]5[C@H](O)[C@H]3O)[C@H]3COC(=O)[C@H]23)OCO4)cc(OC)c1O [VP-16, Etoposide, reference compound] | > 100 |  | 
19.3 ± 1.42 | 15.5 ± 1.11 | 18.2 ± 0.88 | 17.5 ± 0.69 | O=C1C=CC[C@H]([C@@H](O)[C@H](Oc2cc(O)c3c(c2)O[C@H](c2ccccc2)CC3=O)c2ccccc2)O1 [Leiocarpin B, (S)-5-hydroxy-7-((1R,2R)-2-hydroxy-2-((R)-6-oxo-3,6-dihydro-2H-pyran-2-yl)-1-phenylethoxy)-2-phenylchroman-4-one] | > 100 | significantly less | 
50.1 ± 3.25 | 61.7 ± 10.1 | 45 ± 4.27 | 6.73 ± 0.89 | CC(=O)OC(C1CC=CC(=O)O1)C1OC(C2CC=CC(=O)O2)C(c2ccccc2)c2ccccc21 (centres unmarked) [Leiocarpin E-7′-monoacetate, leiocarpin E-7′-monoacetate] | > 100 | significantly less | early apoptosis rate (Q4) (SW1116 cells; SW1116, 3 μM): 2.6%; early apoptosis rate (Q4) (SW1116 cells; SW1116, 10 μM): 21.8%; early apoptosis rate (Q4) (SW1116 cells; SW1116, 30 μM): 55.2%; ratio of ODsample to ODnegative (caspase activity) ([7]; SW1116, 3 μM): ≤ 1; ratio of ODsample to ODnegative (caspase activity) ([7]; SW1116, 10 μM): greater than 1; ratio of ODsample to ODnegative (caspase activity) ([7]; SW1116, 30 μM): greater than 1
